Experimental data reported in US20230096766A1, “AMINO ACID HAVING FUNCTIONAL GROUP CAPABLE OF INTERMOLECULAR HYDROGEN BONDING, PEPTIDE COMPOUND CONTAINING SAME AND METHOD FOR PRODUCTION THEREOF” (Chugai Seiyaku Kabushiki Kaisha, priority 2018, published 2023).
*1 amine or outer side, *2 acyl side, *3 side chain or, on linkers, in order; H or OH if unused. Where a SMILES comes first, the peptide text is derived from it. Bridges are numbered along the chain shown (N, C = ends). [ ]: non-standard residue; d: D form. The star is where a group is joined. ξ: configuration not given here. NMeHph(3-OMe-4-CONHMe) = CNC(=O)c1ccc(CC[C@H](NC)C(=O)O)cc1OC; Phe(3-CONHMe,4-OMe) = CNC(=O)c1cc(C[C@H](N)C(=O)O)ccc1OC; X10 = CN([C@@H](CCN1CCC(F)(F)CC1)C(=O)[*:2])[*:1]; Phe(4-COOH) = N[C@@H](Cc1ccc(C(=O)O)cc1)C(=O)O; NMePhe(3-Cl) = CN[C@@H](Cc1cccc(Cl)c1)C(=O)O; X12 = O=C([C@H](CCCC(O)C(F)(F)F)N[*:1])[*:2]; Tyr(3-F) = N[C@@H](Cc1ccc(O)c(F)c1)C(=O)O; NMehPhe = CN[C@@H](CCc1ccccc1)C(=O)O; Propyl(2,2-Me2,3-OH) = CC(C)(CO)C*; Hyp = O=C(O)[C@@H]1C[C@@H](O)CN1; NMeF = CN[C@@H](Cc1ccccc1)C(=O)O; NMeGABA = CN(CCCC(=O)[*:2])[*:1]; NMeI = CC[C@H](C)[C@H](NC)C(=O)O; CH2CH(OH)CF3 = OC(C*)C(F)(F)F; CH2CONHtBu = CC(C)(C)NC(=O)C*; NMeL = CN[C@@H](CC(C)C)C(=O)O; Butyl(3R-OH) = C[C@@H](O)CC*; Butyl(3S-OH) = C[C@H](O)CC*; NMeV = CN[C@H](C(=O)O)C(C)C; NMeAbu = CC[C@H](NC)C(=O)O; ξNMeL = CNC(CC(C)C)C(=O)O; NMeA = CN[C@@H](C)C(=O)O; Piperidide = C1CCN(*)CC1; CH2CMe2OH = CC(C)(O)C*; NBuGly = CCCCNCC(=O)O; Isopentyl = CC(C)CC*; NPrGly = CCCNCC(=O)O; Propyl(3-OH) = OCCC*; Ethyl(2-OH) = OCC*; N(OH)Me = CN(O)*; X3 = C[C@H](O)C*; Sar = CNCC(=O)O; tBu = CC(C)(C)*

experiment: in vitro; conditions: human, Caco-2, Caco-2

| Compound | Papp [×10⁻⁶ cm/s] |
| --- | --- |
| CCCCN1CC(=O)N(C)[C@@H](Cc2ccccc2)C(=O)N[C@@H](CC(C)C)C(=O)N(C)[C@@H](CC(C)C)C(=O)N[C@@H]([C@@H](C)O)C(=O)N(C)CC(=O)N(C)[C@@H](Cc2ccccc2)C(=O)N(C)[C@@H](CCN2CCC(F)(F)CC2)C(=O)N[C@@H](CC(C)C)C(=O)N(C)[C@@H](C(C)C)C(=O)N[C@H](C(=O)N2CCCCC2)CC1=O [pd395] ([NBuGly][NMeF]L[NMeL]T[Sar][NMeF][X10]L[NMeV]D-Piperidide; lactam N-11) | 1.7 |

same assay, conditions: human, Caco-2, Caco-2 (cm/sec)

| Compound | Papp [×10⁻⁶ cm/s] |
| --- | --- |
| CC(C)C[C@@H]1NC(=O)[C@H](Cc2ccccc2)N(C)C(=O)[C@@H](C(C)C)NC(=O)C[C@@H](C(=O)N2CCCCC2)NC(=O)[C@H](CC(C)C)N(C)C(=O)[C@H](Cc2cccc(Cl)c2)N(C)C(=O)[C@H](COCCCO)NC(=O)[C@H](CC(C)C)N(C)C(=O)CN(C)C(=O)[C@H]([C@@H](C)O)NC(=O)[C@H](CC(C)C)N(C)C1=O [AP90] ([dV][NMeF]L[NMeL]T[Sar][NMeL]S(Propyl(3-OH))[NMePhe(3-Cl)][NMeL]D-Piperidide; lactam N-11) | 3.3 |
| CC(C)C[C@H]1C(=O)N[C@@H](C(C)C)C(=O)N(C)[C@@H](Cc2ccccc2)C(=O)N(C)[C@@H](Cc2ccccc2)C(=O)N[C@@H](COC(C)(C)C)C(=O)N(C)[C@@H](CC(C)C)C(=O)N[C@@H]([C@@H](C)O)C(=O)N(C)[C@@H](Cc2ccccc2)C(=O)N(C)[C@@H](CC(C)C)C(=O)N[C@H](C(=O)N2CCCCC2)CC(=O)N(C)CCCC(=O)N1C [pd216] ([NMeGABA][NMeL]V[NMeF][NMeF]S(tBu)[NMeL]T[NMeF][NMeL]D-Piperidide; lactam N-11) | 1.2 |
| CCCCN1CC(=O)N(C)[C@@H](CC(C)C)C(=O)N[C@@H](COC(C)(C)C)C(=O)N(C)[C@@H]([C@@H](C)CC)C(=O)N(C)[C@@H](CC(C)C)C(=O)N[C@H](C(=O)N2CCCCC2)CC(=O)N[C@H](C)C(=O)N(C)[C@@H](Cc2ccccc2)C(=O)N[C@@H](Cc2ccc(OC)c(C(=O)NC)c2)C(=O)N(C)[C@@H](CC(C)C)C(=O)N[C@@H]([C@@H](C)O)C1=O [AP37] ([dA][NMeF][Phe(3-CONHMe,4-OMe)][NMeL]T[NBuGly][NMeL]S(tBu)[NMeI][NMeL]D-Piperidide; lactam N-11) | 0.4 |
| CCCCN1CC(=O)N(C)[C@@H](CC(C)C)C(=O)N[C@H](C(=O)N2CCCCC2)CC(=O)N(C)[C@@H](C)C(=O)N[C@@H](COCC[C@@H](C)O)C(=O)N(C)[C@@H](CC(C)C)C(=O)N(C)[C@@H](Cc2cccc(Cl)c2)C(=O)N[C@@H](CC(C)C)C(=O)N(C)[C@@H](Cc2ccccc2)C(=O)N(C)[C@@H](C(C)C)C(=O)N[C@@H]([C@@H](C)O)C1=O [AP112] ([NMeA]S(Butyl(3R-OH))[NMeL][NMePhe(3-Cl)]L[NMeF][NMeV]T[NBuGly][NMeL]D-Piperidide; lactam N-11) | 0.73 |
| CCCN1CC(=O)N(C)[C@@H](CC(C)C)C(=O)N[C@@H](COCC(C)(C)O)C(=O)N(C)[C@@H](Cc2ccccc2)C(=O)N(C)[C@@H](CC(C)C)C(=O)N[C@H](C(=O)N2CCCCC2)CC(=O)N[C@H](C(C)C)C(=O)N(C)[C@@H](Cc2ccccc2)C(=O)N[C@@H](CC(C)C)C(=O)N(C)[C@@H](CC(C)C)C(=O)N[C@@H]([C@@H](C)O)C1=O [AP10] ([dV][NMeF]L[NMeL]T[NPrGly][NMeL]S(CH2CMe2OH)[NMeF][NMeL]D-Piperidide; lactam N-11) | 1.5 |
| CCCCN1CC(=O)N(C)[C@@H](CC(C)C)C(=O)N[C@@H](Cc2ccc(C(=O)N(C)O)cc2)C(=O)N(C)[C@@H](CC(C)C)C(=O)N(C)[C@@H](CC(C)C)C(=O)N[C@H](C(=O)N2CCCCC2)CC(=O)N[C@H](CC(C)C)C(=O)N(C)[C@@H](Cc2ccccc2)C(=O)N[C@@H](C(C)C)C(=O)N(C)C(CC(C)C)C(=O)N[C@@H]([C@@H](C)O)C1=O (stereo partly drawn) [AP249] ([dL][NMeF]V[ξNMeL]T[NBuGly][NMeL][Phe(4-COOH)](N(OH)Me)[NMeL][NMeL]D-Piperidide; lactam N-11) | 0.04 |
| CC(C)C[C@@H]1NC(=O)[C@H](Cc2ccccc2)N(C)C(=O)[C@H]2CCCN2C(=O)C[C@@H](C(=O)N2CCCCC2)NC(=O)[C@H](Cc2ccccc2)N(C)C(=O)[C@H](Cc2ccccc2)N(C)C(=O)[C@H](COC(C)(C)C)NC(=O)[C@H](CC(C)C)N(C)C(=O)CN(C)C(=O)[C@H]([C@@H](C)O)NC(=O)[C@H](CC(C)C)N(C)C1=O [pd206] ([dP][NMeF]L[NMeL]T[Sar][NMeL]S(tBu)[NMeF][NMeF]D-Piperidide; lactam N-11) | 1.8 |
| CC(C)C[C@@H]1NC(=O)[C@H](Cc2ccccc2)N(C)C(=O)[C@H](COC(C)(C)C)NC(=O)[C@H](Cc2ccccc2)N(C)C(=O)[C@H](C)N(C)C(=O)[C@H](CC(C)C)N(C)C(=O)[C@@H](C)NC(=O)C[C@@H](C(=O)N2CCCCC2)NC(=O)[C@H](Cc2ccccc2)N(C)C(=O)[C@H]([C@@H](C)O)NC(=O)[C@H](CC(C)C)N(C)C1=O [pd220] ([dA][NMeL][NMeA][NMeF]S(tBu)[NMeF]L[NMeL]T[NMeF]D-Piperidide; lactam N-11) | 1.1 |
| CCCCN1CC(=O)N(C)[C@@H](C(C)C)C(=O)N[C@@H](COC(C)(C)C)C(=O)N(C)[C@@H](Cc2ccccc2)C(=O)N(C)[C@@H](CC(C)C)C(=O)N[C@H](C(=O)N2CCCCC2)CC(=O)N[C@H](C(C)C)C(=O)N(C)[C@@H](Cc2ccccc2)C(=O)N[C@@H](COCC[C@H](C)O)C(=O)N(C)[C@@H](CC(C)C)C(=O)N[C@@H]([C@@H](C)O)C1=O [AP99] ([dV][NMeF]S(Butyl(3S-OH))[NMeL]T[NBuGly][NMeV]S(tBu)[NMeF][NMeL]D-Piperidide; lactam N-11) | 0.86 |
| CC(C)C[C@H]1NC(=O)C[C@@H](C(=O)N2CCCCC2)NC(=O)[C@H](CC(C)C)N(C)C(=O)[C@H](Cc2ccccc2)NC(=O)[C@H](Cc2ccccc2)N(C)C(=O)[C@H]([C@@H](C)O)NC(=O)[C@H](CC(C)C)N(C)C(=O)[C@@H]2C[C@@H](OCCO)CN2C(=O)[C@H](CC(C)C)N(C)C(=O)[C@H](COC(C)(C)C)NC(=O)[C@@H]2CCCN2C1=O [AP234] ([dL]PS(tBu)[NMeL][Hyp](Ethyl(2-OH))[NMeL]T[NMeF]F[NMeL]D-Piperidide; lactam N-11) | 1.3 |
| CCCCN1CC(=O)N(C)[C@@H](Cc2ccccc2)C(=O)N[C@@H]([C@@H](C)CC)C(=O)N(C)[C@@H](CC(C)C)C(=O)N[C@@H]([C@@H](C)O)C(=O)N(C)CC(=O)N(C)[C@@H](CCc2ccc(C(=O)NC)c(OC)c2)C(=O)N(C)[C@@H](CC(C)C)C(=O)N[C@@H](COC(C)(C)C)C(=O)N(C)[C@@H](CC(C)C)C(=O)N[C@H](C(=O)N2CCCCC2)CC1=O [AP232] ([NBuGly][NMeF]I[NMeL]T[Sar][NMeHph(3-OMe-4-CONHMe)][NMeL]S(tBu)[NMeL]D-Piperidide; lactam N-11) | 2 |
| CC(C)C[C@@H]1NC(=O)[C@H](Cc2ccccc2)N(C)C(=O)[C@H](CC(C)C)N(C)C(=O)[C@H](COCC(=O)NC(C)(C)C)NC(=O)[C@H](CC(C)C)N(C)C(=O)C[C@@H](C(=O)N2CCCCC2)NC(=O)[C@H](C)N(C)C(=O)CN(C)C(=O)[C@H]([C@@H](C)O)NC(=O)[C@H](CC(C)C)N(C)C(=O)[C@H](CCc2ccccc2)N(C)C1=O [AP14] ([NMeL]S(CH2CONHtBu)[NMeL][NMeF]L[NMehPhe][NMeL]T[Sar][NMeA]D-Piperidide; lactam N-11) | 0.39 |
| CC(C)C[C@H]1C(=O)N[C@H](C(=O)N2CCCCC2)CC(=O)N(C)CCCC(=O)N(C)[C@@H](CC(C)C)C(=O)N[C@@H](Cc2ccc(O)c(F)c2)C(=O)N(C)[C@@H](CC(C)C)C(=O)N(C)[C@@H](Cc2ccccc2)C(=O)N[C@@H](COC(C)(C)C)C(=O)N(C)[C@@H](CC(C)C)C(=O)N[C@@H]([C@@H](C)O)C(=O)N(C)CC(=O)N1C [pd114] ([NMeGABA][NMeL][Tyr(3-F)][NMeL][NMeF]S(tBu)[NMeL]T[Sar][NMeL]D-Piperidide; lactam N-11) | 0.17 |
| CCCN1CC(=O)N(C)[C@@H](CC(C)C)C(=O)N[C@@H](COCCC(C)C)C(=O)N(C)[C@@H](Cc2ccccc2)C(=O)N(C)[C@@H](CC(C)C)C(=O)N[C@H](C(=O)N2CCCCC2)CC(=O)N[C@H](C(C)C)C(=O)N(C)[C@@H](Cc2ccccc2)C(=O)N[C@@H](COC[C@H](C)O)C(=O)N(C)[C@@H](CC(C)C)C(=O)N[C@@H]([C@@H](C)O)C1=O [AP61] ([dV][NMeF]S(X3)[NMeL]T[NPrGly][NMeL]S(Isopentyl)[NMeF][NMeL]D-Piperidide; lactam N-11) | 0.51 |
| CCCCN1CC(=O)N(C)[C@@H](Cc2ccccc2)C(=O)N(C)[C@@H](CC(C)C)C(=O)N[C@@H](COCC(C)(C)CO)C(=O)N(C)[C@@H](CC(C)C)C(=O)N[C@H](C(=O)N2CCCCC2)CC(=O)N(C)CC(=O)N(C)[C@@H](Cc2ccccc2)C(=O)N[C@@H](C(C)C)C(=O)N(C)[C@@H](CC(C)C)C(=O)N[C@@H]([C@@H](C)O)C1=O [AP124] ([Sar][NMeF]V[NMeL]T[NBuGly][NMeF][NMeL]S(Propyl(2,2-Me2,3-OH))[NMeL]D-Piperidide; lactam N-11) | 1.6 |

same assay, conditions: human, Caco-2, Caco-2 (membrane permeability)

| Compound | Papp [×10⁻⁶ cm/s] |
| --- | --- |
| CCCCN1CC(=O)N(C)[C@@H](CC(C)C)C(=O)N[C@H](C(=O)N2CCCCC2)CC(=O)N(C)[C@@H](C)C(=O)N[C@@H](CCCC(O)C(F)(F)F)C(=O)N(C)[C@@H](CC(C)C)C(=O)N(C)[C@@H](Cc2ccccc2)C(=O)N[C@@H](CC(C)C)C(=O)N(C)[C@@H](Cc2ccccc2)C(=O)N(C)[C@@H]([C@@H](C)CC)C(=O)N[C@@H]([C@@H](C)O)C1=O (stereo partly drawn) [Compound D04] ([NMeA][X12][NMeL][NMeF]L[NMeF][NMeI]T[NBuGly][NMeL]D-Piperidide; lactam N-11) | 0.2 |
| CC[C@H]1C(=O)N[C@@H](COC(C)(C)C)C(=O)N(C)[C@@H](Cc2ccccc2)C(=O)N(C)[C@@H](CC(C)C)C(=O)N[C@H](C(=O)N2CCCCC2)CC(=O)N[C@H](CC(C)C)C(=O)N(C)[C@@H](Cc2ccccc2)C(=O)N[C@@H](CC(C)C)C(=O)N(C)[C@@H](CC)C(=O)N[C@@H](COCC(O)C(F)(F)F)C(=O)N(C)CC(=O)N1C (stereo partly drawn) [Compound C10] ([dL][NMeF]L[NMeAbu]S(CH2CH(OH)CF3)[Sar][NMeAbu]S(tBu)[NMeF][NMeL]D-Piperidide; lactam N-11) | 0.95 |
